#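 How tested: cells in 96-well plates exposed to compound for 48 hours at five concentrations. Here, GI50 denotes the concentration required for 50% inhibition of growth. At the TGI there is no net growth.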
# Key:
# Test in all cases: NCI-60 cell line screen, 48 h
# [1] = system: UO-31 renal
# [2] = system: OVCAR-4 ovarian
# [3] = system: OVCAR-3 ovarian
# [4] = system: BT-549 breast
# [5] = system: PC-3 prostate
# [6] = system: SW-620 colon
# [7] = system: NCI-H23 lung
# [8] = system: HCC-2998 colon
# [9] = system: KM12 colon
# [10] = system: NCI-H522 lung
# [11] = system: CAKI-1 renal
# [12] = system: SK-MEL-2 melanoma
# [13] = system: A498 renal
# [14] = system: M14 melanoma
# [15] = system: NCI-H460 lung
# [16] = system: RPMI-8226 leukemia
# [17] = system: SK-OV-3 ovarian
# [18] = system: SF-295 CNS
# [19] = system: MALME-3M melanoma
# [20] = system: U251 CNS
# [21] = system: SK-MEL-28 melanoma
# [22] = system: SK-MEL-5 melanoma
# [23] = system: HCT-116 colon
# [24] = system: OVCAR-8 ovarian
# [25] = system: HOP-62 NSCLC
# [26] = system: HOP-92 NSCLC
# [27] = system: CCRF-CEM leukemia
# [28] = system: LOX IMVI melanoma
# [29] = system: T-47D breast
# [30] = system: A549 NSCLC
# [31] = system: SR leukemia
# [32] = system: MDA-MB-231 breast
# [33] = system: NCI-H226 lung
# [34] = system: K-562 leukemia
# [35] = system: MDA-MB-435
# [36] = system: 786-0 renal
# [37] = system: HCT-15 colon
# [38] = system: DU-145 prostate
# [39] = system: HL-60(TB) leukemia
# [40] = system: MOLT-4 leukemia
# [41] = system: EKVX NSCLC
# [42] = system: UACC-257 melanoma
# [43] = system: HS 578T breast
# [44] = system: SF-539 CNS
# [45] = system: OVCAR-5 ovarian
# [46] = system: SF-268 CNS
# [47] = system: SNB-75 CNS
# [48] = system: MCF7 breast
# [49] = system: RXF 393 renal
# [50] = system: ACHN renal
# [51] = system: SNB-19 CNS
# [52] = system: HT29 colon
# [53] = system: UACC-62 melanoma
# [54] = system: SN12C renal
# [55] = system: COLO 205 colon
# [56] = system: NCI/ADR-RES ovarian
# [57] = system: IGROV1 ovarian
# [58] = system: TK-10 renal
compound,measurement,setting,value
N#Cc1c(-c2ccc(Cl)cc2)cc(-c2cc(O)ccc2O)nc1N,GI50,[1],5.12 µM
same,TGI,[1],23.6 µM
same,GI50,[2],0.576 µM
same,TGI,[2],2.2 µM
same,GI50,[3],0.472 µM
same,TGI,[3],1.51 µM
same,GI50,[4],3.41 µM
same,TGI,[4],31.2 µM
same,GI50,[5],1.48 µM
same,TGI,[5],> 33.9 µM
same,GI50,[6],0.773 µM
same,TGI,[6],4.68 µM
same,GI50,[7],1.22 µM
same,TGI,[7],5.28 µM
same,GI50,[8],1.17 µM
same,TGI,[8],3.46 µM
same,GI50,[9],2 µM
same,TGI,[9],14.9 µM
same,GI50,[10],0.606 µM
same,TGI,[10],2.72 µM
same,GI50,[11],2.98 µM
same,TGI,[11],19.1 µM
same,GI50,[12],2.6 µM
same,TGI,[12],9.16 µM
same,GI50,[13],1.41 µM
same,TGI,[13],6.14 µM
same,GI50,[14],1.23 µM
same,TGI,[14],5.63 µM
same,GI50,[15],0.935 µM
same,TGI,[15],4.87 µM
same,GI50,[16],3.2 µM
same,TGI,[16],> 100 µM
same,GI50,[17],2.42 µM
same,TGI,[17],6.34 µM
same,GI50,[18],2.94 µM
same,TGI,[18],9.77 µM
same,GI50,[19],1.54 µM
same,TGI,[19],4.27 µM
same,GI50,[20],0.669 µM
same,TGI,[20],2.41 µM
same,GI50,[21],1.76 µM
same,TGI,[21],4.23 µM
same,GI50,[22],0.853 µM
same,TGI,[22],2.4 µM
same,GI50,[23],0.553 µM
same,TGI,[23],> 34 µM
same,GI50,[24],1.37 µM
same,TGI,[24],4.93 µM
same,GI50,[25],0.908 µM
same,TGI,[25],3.5 µM
same,GI50,[26],2.39 µM
same,TGI,[26],10.8 µM
same,GI50,[27],1.23 µM
same,TGI,[27],> 100 µM
same,GI50,[28],0.558 µM
same,TGI,[28],1.89 µM
same,GI50,[29],0.854 µM
same,TGI,[29],5.64 µM
same,GI50,[30],2.33 µM
same,TGI,[30],13.8 µM
same,GI50,[31],0.605 µM
same,TGI,[31],> 100 µM
same,GI50,[32],1.25 µM
same,TGI,[32],5.09 µM
same,GI50,[33],2.54 µM
same,TGI,[33],9.87 µM
same,GI50,[34],0.402 µM
same,TGI,[34],> 100 µM
same,GI50,[35],0.686 µM
same,TGI,[35],2.74 µM
same,GI50,[36],2.06 µM
same,TGI,[36],6.49 µM
same,GI50,[37],4.74 µM
same,TGI,[37],> 52.8 µM
same,GI50,[38],1.25 µM
same,TGI,[38],10.5 µM
same,GI50,[39],7.64 µM
same,TGI,[39],> 87.9 µM
same,GI50,[40],0.666 µM
same,TGI,[40],5.02 µM
same,GI50,[41],2.77 µM
same,TGI,[41],> 62.9 µM
same,GI50,[42],1.83 µM
same,TGI,[42],7.44 µM
same,GI50,[43],1.73 µM
same,TGI,[43],> 100 µM
same,GI50,[44],0.981 µM
same,TGI,[44],3.29 µM
same,GI50,[45],5.07 µM
same,TGI,[45],25.7 µM
same,GI50,[46],0.825 µM
same,TGI,[46],7.15 µM
same,GI50,[47],0.914 µM
same,TGI,[47],4.04 µM
same,GI50,[48],0.566 µM
same,TGI,[48],> 32.8 µM
same,GI50,[49],0.835 µM
same,TGI,[49],2.72 µM
same,GI50,[50],1.89 µM
same,TGI,[50],12.2 µM
same,GI50,[51],1.29 µM
same,TGI,[51],> 45.3 µM
same,GI50,[52],11.7 µM
same,TGI,[52],> 53.3 µM
same,GI50,[53],1.45 µM
same,TGI,[53],3.99 µM
same,GI50,[54],1.17 µM
same,TGI,[54],5.63 µM
same,GI50,[55],22.4 µM
same,TGI,[55],> 100 µM
same,GI50,[56],8.8 µM
same,TGI,[56],> 100 µM
same,GI50,[57],1.24 µM
same,TGI,[57],4.77 µM
same,GI50,[58],4.08 µM
same,TGI,[58],32.8 µM
COc1cc2c3c(n(CCCNCCCNCCCn4c5c(c6cc(OC)c(OC)cc6c4=O)C(=O)c4ccccc4-5)c(=O)c2cc1OC)-c1ccccc1C3=O,GI50,[1],> 100 µM
same,TGI,[1],> 100 µM
same,GI50,[2],> 100 µM
same,TGI,[2],> 100 µM
same,GI50,[3],12.6 µM
same,TGI,[3],31.5 µM
same,GI50,[4],58.2 µM
same,TGI,[4],> 100 µM
same,GI50,[5],4.04 µM
same,TGI,[5],> 60 µM
same,GI50,[6],7.51 µM
same,TGI,[6],> 100 µM
same,GI50,[7],> 100 µM
same,TGI,[7],> 100 µM
same,GI50,[8],2.13 µM
same,TGI,[8],30.3 µM
same,GI50,[9],4.77 µM
same,TGI,[9],> 84.9 µM
same,GI50,[10],1.54 µM
same,TGI,[10],38.7 µM
same,GI50,[11],> 100 µM
same,TGI,[11],> 100 µM
same,GI50,[12],40.3 µM
same,TGI,[12],> 100 µM
same,GI50,[13],25.2 µM
same,TGI,[13],59.8 µM
same,GI50,[14],22.6 µM
same,TGI,[14],> 58.9 µM
same,GI50,[15],6.23 µM
same,TGI,[15],> 100 µM
same,GI50,[16],0.487 µM
same,TGI,[16],6.62 µM
same,GI50,[17],> 100 µM
same,TGI,[17],> 100 µM
same,GI50,[18],5.03 µM
same,TGI,[18],18.4 µM
same,GI50,[19],25.7 µM
same,TGI,[19],> 91.7 µM
same,GI50,[20],2.49 µM
same,TGI,[20],17.4 µM
same,GI50,[21],> 52.5 µM
same,TGI,[21],> 82.4 µM
same,GI50,[22],68.2 µM
same,TGI,[22],> 100 µM
same,GI50,[23],1.27 µM
same,TGI,[23],17.6 µM
same,GI50,[24],2.87 µM
same,TGI,[24],> 100 µM
same,GI50,[25],6.59 µM
same,TGI,[25],47 µM
same,GI50,[26],1.74 µM
same,TGI,[26],8.62 µM
same,GI50,[27],0.491 µM
same,TGI,[27],12.7 µM
same,GI50,[28],1.31 µM
same,TGI,[28],13.9 µM
same,GI50,[29],> 24.8 µM
same,TGI,[29],> 100 µM
same,GI50,[30],12.7 µM
same,TGI,[30],> 100 µM
same,GI50,[31],0.225 µM
same,TGI,[31],22.2 µM
same,GI50,[32],2 µM
same,TGI,[32],20.1 µM
same,GI50,[33],7.89 µM
same,TGI,[33],> 52.2 µM
same,GI50,[34],3.39 µM
same,TGI,[34],45.4 µM
same,GI50,[35],12.9 µM
same,TGI,[35],> 59.1 µM
same,TGI,[36],> 46.4 µM
same,GI50,[37],> 84.5 µM
same,TGI,[37],> 100 µM
same,GI50,[38],> 44.3 µM
same,TGI,[38],> 100 µM
same,GI50,[39],1.11 µM
same,TGI,[39],12.6 µM
same,GI50,[40],2.65 µM
same,TGI,[40],9.8 µM
same,GI50,[41],> 100 µM
same,TGI,[41],> 100 µM
same,GI50,[42],> 100 µM
same,TGI,[42],> 100 µM
same,GI50,[43],> 50.7 µM
same,TGI,[43],> 100 µM
same,GI50,[44],9.17 µM
same,TGI,[44],45.4 µM
same,GI50,[45],20 µM
same,TGI,[45],> 100 µM
same,GI50,[46],6.61 µM
same,TGI,[46],> 100 µM
same,GI50,[47],25 µM
same,TGI,[47],62.1 µM
same,GI50,[48],1.51 µM
same,TGI,[48],> 53.2 µM
same,GI50,[49],> 47.8 µM
same,TGI,[49],> 92.2 µM
same,GI50,[50],24.2 µM
same,TGI,[50],> 100 µM
same,GI50,[51],6.91 µM
same,TGI,[51],> 47.8 µM
same,GI50,[52],2.15 µM
same,TGI,[52],> 100 µM
same,GI50,[53],8.75 µM
same,TGI,[53],38.9 µM
same,GI50,[54],0.706 µM
same,TGI,[54],> 51.6 µM
same,GI50,[55],7.24 µM
same,TGI,[55],> 61.9 µM
same,GI50,[56],> 100 µM
same,TGI,[56],> 100 µM
same,GI50,[57],1.33 µM
same,TGI,[57],> 55.6 µM
same,GI50,[58],40.2 µM
same,TGI,[58],> 100 µM

# Reference: PubChem BioAssay (NCI)
